Starred links: 1 amine or outer side, 2 acyl side, 3 side chain; linkers in the order of their positions; H or OH if unused. Non-standard residues stand in square brackets, D forms with d. Residues, ends and D or L forms follow the SMILES beside them. Trp(4-Cl)(βS-Me) = C[C@@H](c1c[nH]c2cccc(Cl)c12)[C@H](N)C(=O)O; dPro(4R-(4-pyridylmethyl)) = O=C(O)[C@H]1C[C@@H](Cc2ccncc2)CN1; X17 = CN(C)C(=O)c1ccc(-c2ccc(C[C@H](N[*:1])C(=O)[*:2])cc2)cc1; Trp(βS-Me,4-F) = C[C@@H](c1c[nH]c2cccc(F)c12)[C@H](N)C(=O)O; Bip(4'-CONH2) = NC(=O)c1ccc(-c2ccc(C[C@H](N)C(=O)O)cc2)cc1; Bip(4'-COOH) = N[C@@H](Cc1ccc(-c2ccc(C(=O)O)cc2)cc1)C(=O)O; dPro(4R-Bzl(4-F)) = O=C(O)[C@H]1C[C@@H](Cc2ccc(F)cc2)CN1; dPro(3S-(4-F-Bn)) = O=C(O)[C@@H]1NCC[C@@H]1Cc1ccc(F)cc1; 1Nal(3S-Me) = C[C@@H](c1cccc2ccccc12)[C@H](N)C(=O)O; Ala(piperazin-1-yl) = N[C@@H](CN1CCNCC1)C(=O)O; Ala(pyrimidin-5-yl) = N[C@@H](Cc1cncnc1)C(=O)O; Phe(4-COOH) = N[C@@H](Cc1ccc(C(=O)O)cc1)C(=O)O; X25 = C[N+](C)(C)CCC[C@H](N[*:1])C(=O)[*:2]; Bip = N[C@@H](Cc1ccc(-c2ccccc2)cc1)C(=O)O; Lys(Me3) = C[N+](C)(C)CCCC[C@H](N)C(=O)O; Phe(4-Br) = N[C@@H](Cc1ccc(Br)cc1)C(=O)O; Pro(cis-4-F) = O=C(O)[C@@H]1C[C@H](F)CN1; Ala(4-THP) = N[C@@H](CC1CCOCC1)C(=O)O; d(αMeD) = C[C@@](N)(CC(=O)O)C(=O)O; 4Pal = N[C@@H](Cc1ccncc1)C(=O)O; aThr = C[C@H](O)[C@H](N)C(=O)O; Dab = NCC[C@H](N)C(=O)O; Aib = CC(C)(N)C(=O)O
What follows are compounds tested against T1, IL-1β (Homo sapiens, UniProt P01584) (assay: IL-6 assay in MRC5 cells: inhibition of IL-1β induced IL-6 secretion (AlphaLISA)). Settings: inhibition of IL-1β induced IL-6 secretion in MRC5 cells; compound pre-incubated 1 hour with recombinant human IL-1β; read-out: MRC5 IC50.
T1 construct: purchased BioLegend 579404
T1 sequence (P01584 117-269): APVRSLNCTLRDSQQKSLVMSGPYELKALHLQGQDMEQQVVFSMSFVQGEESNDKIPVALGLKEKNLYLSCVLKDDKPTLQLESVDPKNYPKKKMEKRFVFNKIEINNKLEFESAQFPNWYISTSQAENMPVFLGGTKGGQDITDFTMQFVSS
Assay type: cell-based
How it was run: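 Compound was pre-incubated 1 h at ambient temperature with recombinant human IL-1β at 2λ EC80 before adding human lung fibroblast MRC5 cells (3000/well) in EMEM with 0.025% BSA. After overnight culture at 37 °C, 5% CO2, secreted IL-6 in conditioned medium was measured by AlphaLISA; IC50 from 4-parameter logistic fits.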
Work on C[C@@H](c1c[nH]c2cccc(F)c12)[C@@H]1NC(=O)[C@@H]2C[C@H](F)CN2C(=O)CNC(=O)[C@H](Cc2ccc(C(=O)O)cc2)NC(=O)[C@H](Cc2ccncc2)NC(=O)[C@H](Cc2ccc(-c3ccc(C(=O)O)cc3)cc2)NC(=O)[C@H]2[C@@H](Cc3ccc(F)cc3)CCN2C(=O)CNC(=O)[C@H](CCN)NC(=O)[C@H](CCC(N)=O)NC(=O)[C@H](CN2CCNCC2)NC(=O)[C@@](C)(CC(=O)O)NC(=O)[C@H](Cc2c[nH]c3ccccc23)NC(=O)[C@H](CO)NC(=O)C(C)(C)NC1=O [Example 287] (cyclo([Bip(4'-COOH)][4Pal][Phe(4-COOH)]G[Pro(cis-4-F)][Trp(βS-Me,4-F)][Aib]SW[d(αMeD)][Ala(piperazin-1-yl)]Q[Dab]G[dPro(3S-(4-F-Bn))])) yielded an IC50 of 0.011 nM.
C[C@H](O)[C@@H]1NC(=O)[C@@](C)(CC(=O)O)NC(=O)[C@H](Cc2c[nH]c3ccccc23)NC(=O)[C@H](CO)NC(=O)C(C)(C)NC(=O)[C@H]([C@@H](C)c2cccc3ccccc23)NC(=O)[C@@H]2C[C@H](F)CN2C(=O)CNC(=O)[C@H](Cc2ccc(C(=O)O)cc2)NC(=O)[C@H](Cc2ccncc2)NC(=O)[C@H](Cc2ccc(-c3ccccc3)cc2)NC(=O)[C@H]2C[C@@H](Cc3ccncc3)CN2C(=O)CNC(=O)[C@H](CCN)NC(=O)[C@H](CCC(N)=O)NC1=O [Example 288] (cyclo([Bip][4Pal][Phe(4-COOH)]G[Pro(cis-4-F)][1Nal(3S-Me)][Aib]SW[d(αMeD)][aThr]Q[Dab]G[dPro(4R-(4-pyridylmethyl))])) showed an IC50 of 0.019 nM.
C[C@H](O)[C@@H]1NC(=O)[C@@](C)(CC(=O)O)NC(=O)[C@H](Cc2c[nH]c3ccccc23)NC(=O)[C@H](CO)NC(=O)C(C)(C)NC(=O)[C@H]([C@@H](C)c2c[nH]c3cccc(Cl)c23)NC(=O)[C@@H]2C[C@H](F)CN2C(=O)CNC(=O)[C@H](Cc2ccc(C(=O)O)cc2)NC(=O)[C@H](Cc2ccncc2)NC(=O)[C@H](Cc2ccc(-c3ccccc3)cc2)NC(=O)[C@H]2C[C@@H](Cc3ccncc3)CN2C(=O)CNC(=O)[C@H](CCN)NC(=O)[C@H](CCC(N)=O)NC1=O [Example 289] (cyclo([Bip][4Pal][Phe(4-COOH)]G[Pro(cis-4-F)][Trp(4-Cl)(βS-Me)][Aib]SW[d(αMeD)][aThr]Q[Dab]G[dPro(4R-(4-pyridylmethyl))])) gave an IC50 of 0.015 nM.
C[C@@H](c1cccc2ccccc12)[C@@H]1NC(=O)[C@@H]2C[C@H](F)CN2C(=O)CNC(=O)[C@H](Cc2ccc(C(=O)O)cc2)NC(=O)[C@H](Cc2ccncc2)NC(=O)[C@H](Cc2ccc(-c3ccccc3)cc2)NC(=O)[C@H]2C[C@@H](Cc3ccncc3)CN2C(=O)CNC(=O)[C@H](CCN)NC(=O)[C@H](CCC(N)=O)NC(=O)[C@H](CC2CCOCC2)NC(=O)[C@@](C)(CC(=O)O)NC(=O)[C@H](Cc2c[nH]c3ccccc23)NC(=O)[C@H](CO)NC(=O)C(C)(C)NC1=O [Example 290] (cyclo([Bip][4Pal][Phe(4-COOH)]G[Pro(cis-4-F)][1Nal(3S-Me)][Aib]SW[d(αMeD)][Ala(4-THP)]Q[Dab]G[dPro(4R-(4-pyridylmethyl))])) gave an IC50 of 0.018 nM.
For C[C@@H](c1cccc2ccccc12)[C@@H]1NC(=O)[C@@H]2C[C@H](F)CN2C(=O)CNC(=O)[C@H](Cc2ccc(C(=O)O)cc2)NC(=O)[C@H](Cc2ccncc2)NC(=O)[C@H](Cc2ccc(-c3ccccc3)cc2)NC(=O)[C@H]2C[C@@H](Cc3ccncc3)CN2C(=O)CNC(=O)[C@H](CCN)NC(=O)[C@H](CCC(N)=O)NC(=O)[C@H](Cc2cncnc2)NC(=O)[C@@](C)(CC(=O)O)NC(=O)[C@H](Cc2c[nH]c3ccccc23)NC(=O)[C@H](CO)NC(=O)C(C)(C)NC1=O [Example 291] (cyclo([Bip][4Pal][Phe(4-COOH)]G[Pro(cis-4-F)][1Nal(3S-Me)][Aib]SW[d(αMeD)][Ala(pyrimidin-5-yl)]Q[Dab]G[dPro(4R-(4-pyridylmethyl))])), the IC50 was 0.018 nM.
For C[C@@H](c1c[nH]c2cccc(Cl)c12)[C@@H]1NC(=O)[C@@H]2C[C@H](F)CN2C(=O)CNC(=O)[C@H](Cc2ccc(C(=O)O)cc2)NC(=O)[C@H](Cc2ccncc2)NC(=O)[C@H](Cc2ccc(-c3ccccc3)cc2)NC(=O)[C@H]2C[C@@H](Cc3ccncc3)CN2C(=O)CNC(=O)[C@H](CCN)NC(=O)[C@H](CCC(N)=O)NC(=O)[C@H](Cc2cncnc2)NC(=O)[C@@](C)(CC(=O)O)NC(=O)[C@H](Cc2c[nH]c3ccccc23)NC(=O)[C@H](CO)NC(=O)C(C)(C)NC1=O [Example 292] (cyclo([Bip][4Pal][Phe(4-COOH)]G[Pro(cis-4-F)][Trp(4-Cl)(βS-Me)][Aib]SW[d(αMeD)][Ala(pyrimidin-5-yl)]Q[Dab]G[dPro(4R-(4-pyridylmethyl))])), the IC50 was 0.015 nM.
For C[C@H](O)[C@@H]1NC(=O)[C@@](C)(CC(=O)O)NC(=O)[C@H](Cc2c[nH]c3ccccc23)NC(=O)[C@H](CO)NC(=O)C(C)(C)NC(=O)[C@H]([C@@H](C)c2c[nH]c3cccc(F)c23)NC(=O)[C@@H]2C[C@H](F)CN2C(=O)CNC(=O)[C@H](Cc2ccc(C(=O)O)cc2)NC(=O)[C@H](Cc2ccncc2)NC(=O)[C@H](Cc2ccc(-c3ccccc3)cc2)NC(=O)[C@H]2C[C@@H](Cc3ccncc3)CN2C(=O)CNC(=O)[C@H](CCN)NC(=O)[C@H](CCC(N)=O)NC1=O [Example 293] (cyclo([Bip][4Pal][Phe(4-COOH)]G[Pro(cis-4-F)][Trp(βS-Me,4-F)][Aib]SW[d(αMeD)][aThr]Q[Dab]G[dPro(4R-(4-pyridylmethyl))])), the IC50 was 0.01 nM.
C[C@@H](c1c[nH]c2cccc(F)c12)[C@@H]1NC(=O)[C@@H]2C[C@H](F)CN2C(=O)CNC(=O)[C@H](Cc2ccc(C(=O)O)cc2)NC(=O)[C@H](Cc2ccncc2)NC(=O)[C@H](Cc2ccc(-c3ccccc3)cc2)NC(=O)[C@H]2C[C@@H](Cc3ccncc3)CN2C(=O)CNC(=O)[C@H](CCN)NC(=O)[C@H](CCC(N)=O)NC(=O)[C@H](CC2CCOCC2)NC(=O)[C@@](C)(CC(=O)O)NC(=O)[C@H](Cc2c[nH]c3ccccc23)NC(=O)[C@H](CO)NC(=O)C(C)(C)NC1=O [Example 294] (cyclo([Bip][4Pal][Phe(4-COOH)]G[Pro(cis-4-F)][Trp(βS-Me,4-F)][Aib]SW[d(αMeD)][Ala(4-THP)]Q[Dab]G[dPro(4R-(4-pyridylmethyl))])) was tested, and the IC50 was 0.014 nM.
C[C@@H](c1c[nH]c2cccc(F)c12)[C@@H]1NC(=O)[C@@H]2C[C@H](F)CN2C(=O)CNC(=O)[C@H](Cc2ccc(C(=O)O)cc2)NC(=O)[C@H](Cc2ccncc2)NC(=O)[C@H](Cc2ccc(-c3ccc(C(=O)N(C)C)cc3)cc2)NC(=O)[C@H]2C[C@@H](Cc3ccncc3)CN2C(=O)CNC(=O)[C@H](CCN)NC(=O)[C@H](CCC(N)=O)NC(=O)[C@H](CC2CCOCC2)NC(=O)[C@@](C)(CC(=O)O)NC(=O)[C@H](Cc2c[nH]c3ccccc23)NC(=O)[C@H](CO)NC(=O)C(C)(C)NC1=O [Example 295] (cyclo([X17][4Pal][Phe(4-COOH)]G[Pro(cis-4-F)][Trp(βS-Me,4-F)][Aib]SW[d(αMeD)][Ala(4-THP)]Q[Dab]G[dPro(4R-(4-pyridylmethyl))])) showed an IC50 of 0.012 nM.
Compound C[C@@H](c1c[nH]c2cccc(F)c12)[C@@H]1NC(=O)[C@@H]2C[C@H](F)CN2C(=O)CNC(=O)[C@H](Cc2ccc(C(=O)O)cc2)NC(=O)[C@H](Cc2ccncc2)NC(=O)[C@H](Cc2ccc(-c3ccc(C(N)=O)cc3)cc2)NC(=O)[C@H]2C[C@@H](Cc3ccncc3)CN2C(=O)CNC(=O)[C@H](CCN)NC(=O)[C@H](CCC(N)=O)NC(=O)[C@H](CC2CCOCC2)NC(=O)[C@@](C)(CC(=O)O)NC(=O)[C@H](Cc2c[nH]c3ccccc23)NC(=O)[C@H](CO)NC(=O)C(C)(C)NC1=O [Example 296] (cyclo([Bip(4'-CONH2)][4Pal][Phe(4-COOH)]G[Pro(cis-4-F)][Trp(βS-Me,4-F)][Aib]SW[d(αMeD)][Ala(4-THP)]Q[Dab]G[dPro(4R-(4-pyridylmethyl))])) has an IC50 of 0.013 nM.
Work on C[C@@H](c1c[nH]c2cccc(F)c12)[C@@H]1NC(=O)[C@@H]2C[C@H](F)CN2C(=O)CNC(=O)[C@H](Cc2ccc(C(=O)O)cc2)NC(=O)[C@H](Cc2ccncc2)NC(=O)[C@H](Cc2ccc(-c3ccc(C(=O)O)cc3)cc2)NC(=O)[C@H]2C[C@@H](Cc3ccc(F)cc3)CN2C(=O)CNC(=O)[C@H](CCN)NC(=O)[C@H](CCC(N)=O)NC(=O)[C@H](CCC[N+](C)(C)C)NC(=O)C(C)(C)NC(=O)[C@H](Cc2c[nH]c3ccccc23)NC(=O)[C@H](CO)NC(=O)C(C)(C)NC1=O [Example 297] (cyclo([Bip(4'-COOH)][4Pal][Phe(4-COOH)]G[Pro(cis-4-F)][Trp(βS-Me,4-F)][Aib]SW[Aib][X25]Q[Dab]G[dPro(4R-Bzl(4-F))])) yielded an IC50 of 0.022 nM.
In the case of C[C@@H](c1c[nH]c2cccc(F)c12)[C@@H]1NC(=O)[C@@H]2C[C@H](F)CN2C(=O)CNC(=O)[C@H](Cc2ccc(C(=O)O)cc2)NC(=O)[C@H](Cc2ccncc2)NC(=O)[C@H](Cc2ccc(-c3ccc(C(=O)O)cc3)cc2)NC(=O)[C@H]2C[C@@H](Cc3ccc(F)cc3)CN2C(=O)CNC(=O)[C@H](CCN)NC(=O)[C@H](CCC(N)=O)NC(=O)[C@H](CCCC[N+](C)(C)C)NC(=O)C(C)(C)NC(=O)[C@H](Cc2c[nH]c3ccccc23)NC(=O)[C@H](CO)NC(=O)C(C)(C)NC1=O [Example 298] (cyclo([Bip(4'-COOH)][4Pal][Phe(4-COOH)]G[Pro(cis-4-F)][Trp(βS-Me,4-F)][Aib]SW[Aib][Lys(Me3)]Q[Dab]G[dPro(4R-Bzl(4-F))])), the IC50 is reported as 0.015 nM.
With C[C@@H](c1c[nH]c2cccc(F)c12)[C@@H]1NC(=O)[C@@H]2C[C@H](F)CN2C(=O)CNC(=O)[C@H](Cc2ccc(C(=O)O)cc2)NC(=O)[C@H](Cc2ccncc2)NC(=O)[C@H](Cc2ccc(Br)cc2)NC(=O)[C@H]2[C@@H](Cc3ccc(F)cc3)CCN2C(=O)CNC(=O)[C@H](CCN)NC(=O)[C@H](CCC(N)=O)NC(=O)[C@H](Cc2cncnc2)NC(=O)[C@@](C)(CC(=O)O)NC(=O)[C@H](Cc2c[nH]c3ccccc23)NC(=O)[C@H](CO)NC(=O)C(C)(C)NC1=O [Example 299] (cyclo([Phe(4-Br)][4Pal][Phe(4-COOH)]G[Pro(cis-4-F)][Trp(βS-Me,4-F)][Aib]SW[d(αMeD)][Ala(pyrimidin-5-yl)]Q[Dab]G[dPro(3S-(4-F-Bn))])) the IC50 was 0.012 nM.
